# Measured values from patent US10053461B2 (Hoffmann-La Roche Inc., priority 2015, dated 2018).
# Where two headings read alike, the source gives them in different places.
# Columns and labels:
# HBsAg [1] = conditions: HBsAg secretion reduced by 50% vs no drug control, HepG2.2.15 cells
# Description: (§1) HepG2.2.15 cells (Acs et al. Proc Natl Acad Sci USA, 84, (1987), 4641-4), a constitutively HBV-expressing cell line were cultured in DMEM+Glutamax-I medium (Invitrogen, Carlsbad, Calif., USA), supplemented with 10% fetal bovine serum (Invitrogen) and G418 (Invitrogen) at a final concentration of 200 mg/L and maintained in 5% CO2 at 37° C.
# (§2) HepG2.2.15 cells were seeded in duplicate into white, 96-well plates at 1.5×10^4 cells/well. The cells were treated with a three-fold serial dilution series of the compounds in DMSO. The final DMSO concentration in all wells was 1% and DMSO was used as no drug control.
# (§3) The HBsAg chemiluminescence immunoassay (CLIA) kit (Autobio Diagnostics Co., Zhengzhou, China, Catalog number: CL0310-2) was used to measure the levels of secreted HBV antigens semi-quantitatively. For the detection 50 μL/well culture supernatant was used and HBsAg was quantified using HBsAg chemiluminescence immunoassay (CLIA) kit (Autobio Diagnostics Co., Zhengzhou, China, Catalog number: CL0310-2), 50 μL of the supernatant was transferred to the CLIA assay plate and 50 μL of enzyme conjugate reagent was added into each well. The plates were sealed and gently agitated for 1 hour at room temperature. The supernatant-enzyme-mixture was discarded and wells were washed 6 times with 300 μL of PBS. The residual liquid was removed by plating the CLIA plate right side down on absorbent tissue paper. 25 μL of substrates A and B were added to each well. Luminance was measured using a luminometer (Mithras LB 940 Multimode Microplate Reader) after 10 minutes incubation. Dose-response curves were generated and the IC50 value was extrapolated by using the E-WorkBook Suite (ID Business Solutions Ltd., Guildford, UK). The IC50 was defined as the compound concentration (or conditioned media log dilution) at which HBsAg secretion was reduced by 50% compared to the no drug control.
# (§4) The compounds of the present invention were tested for their activity to inhibit HBsAg as described herein.
# HBsAg [2] = assay: microbe, parasite or virus in culture; conditions: Hepatitis B virus, HepG2.2.15
# Description: as §1, §2, §3, §4
# HBV DNA = HBV DNA assay (real-time qPCR of extracellular HBV DNA, HepG2.2.15 cells); format: cell-based; conditions: Hepatitis B virus, 144 h; Anti HBV DNA production activity in HepG2.2.15 cells, six days
# Description: The assay employs real-time qPCR (TaqMan) to directly measure extracellular HBV DNA copy number. HepG2.2.15 cells were plated in 96-well microtiter plates. Only the interior wells were utilized to reduce “edge effects” observed during cell culture, the exterior wells were filled with complete medium to help minimize sample evaporation. On the following day, the HepG2.2.15 cells were washed and the medium was replaced with complete medium containing various concentrations of a test compound in triplicate. 3TC was used as the positive control, while media alone was added to cells as a negative control (virus control, VC). Three days later, the culture medium was replaced with fresh medium containing the appropriately diluted drug. Six days following the initial administration of the test compound, the cell culture supernatant was collected, treated with pronase and then used in a real-time qPCR/TaqMan assay to determine HBV DNA copy numbers. Antiviral activity was calculated from the reduction in HBV DNA levels (IC50).
SMILES,IC50 (HBsAg [1]),IC50 (HBsAg [2]),IC50 (HBV DNA)
"COc1cc2c(cc1OCc1ccccc1)[C@H]1CCC(C)(C)[C@H]1n1cc(C(=O)O)c(=O)cc1-2 [Example 4, (3aS,12bR)-11-(benzyloxy)-10-methoxy-3,3-dimethyl-7-oxo-1,2,3,3a,7,12b-hexahydrocyclopenta[c]pyrido[2,1-a]isoquinoline-6-carboxylic acid]",3 nM,–,–
"COCCCOc1cc2c(cc1Cl)-c1cc(=O)c(C(=O)O)cn1[C@@H]1CCCCC[C@H]21 (relative stereo) [Example 28, cis-13-chloro-12-(3-methoxypropoxy)-2-oxo-2,5a,6,7,8,9,10,10a-octahydrocyclohepta[c]pyrido[2,1-a]isoquinoline-3-carboxylic acid]",–,3 nM,< 32 nM
"COc1cc2c(cc1OCc1ccccc1)[C@H]1CCC(C)(C)[C@H]1n1cc(C(=O)O)c(=O)cc1-2 (relative stereo) [Example 3, Cis-11-(benzyloxy)-10-methoxy-3,3-dimethyl-7-oxo-1,2,3,3a,7,12b-hexahydrocyclopenta[c]pyrido[2,1-a]isoquinoline-6-carboxylic acid]",–,3 nM,40 nM
